Here are results for seven compounds from BindingDB's records for patent US20250325711 (Hoffmann-La Roche, 2025).

By Kd is commonly meant the free concentration of one partner at which half of the binding sites on the other are occupied at equilibrium, for simple one-to-one binding.

In this experiment the target is Cannabinoid receptor 2 (Homo sapiens, UniProt P34972). Put plainly: Competition Binding Assay. As to the method: To determine the affinity of CB2R-specific ligands, we used a simple competition kinetic binding assay. This approach involves the simultaneous addition of both fluorescent ligand and competitor to the CB2R preparation. 62.5 nM 8-SiR, concentration which avoid ligand depletion in this assay volume, were added simultaneously with increasing concentrations of the unlabeled compound to CB2R cell membranes (4 μg per well) in 40 μL of assay buffer in a 384-well plate incubated at room temperature with orbital mixing. The degree of fluorescent ligand bound to the receptor was assessed at equilibrium by HTRF detection. Nonspecific binding was determined as the amount of HTRF signal detected in the presence of SR144528 (1 μM) and was subtracted from total binding, to calculate specific binding for construction of IC50 curves.
Cannabinoid receptor 2, sequence (P34972 whole entry): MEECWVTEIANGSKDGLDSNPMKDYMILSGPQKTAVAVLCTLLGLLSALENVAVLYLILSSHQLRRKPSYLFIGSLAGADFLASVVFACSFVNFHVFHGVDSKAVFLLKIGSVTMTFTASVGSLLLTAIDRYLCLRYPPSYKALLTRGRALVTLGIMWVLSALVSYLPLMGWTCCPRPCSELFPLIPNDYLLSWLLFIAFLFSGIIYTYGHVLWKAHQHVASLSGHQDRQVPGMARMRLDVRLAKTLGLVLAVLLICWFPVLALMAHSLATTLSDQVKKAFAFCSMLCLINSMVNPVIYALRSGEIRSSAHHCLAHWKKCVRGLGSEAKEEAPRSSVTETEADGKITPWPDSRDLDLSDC
Turning to `COc1cc(C(C)(C)CCCCCCN=[N+]=[N-])cc(OC)c1[C@H]1C=C(CNC(=O)CCCCNC(=O)c2ccc(=O)n(S(=O)(=O)c3cccc(C(=O)NCCC4CN(CCOCCNc5ccc([N+](=O)[O-])c6nonc56)N=N4)c3)c2)[C@H]2C[C@@H]1C2(C)C` (some centres not stated) [US20250325711, Example 1], binding was put at a Kd of 9.1 nM.

For `COc1cc(C(C)(C)CCCCCCN=[N+]=[N-])cc(OC)c1[C@H]1C=C(CNC(=O)CCCCCCNC(=O)c2ccc(=O)n(S(=O)(=O)c3cccc(C(=O)NCC4CN(CCOCCNc5ccc([N+](=O)[O-])c6nonc56)N=N4)c3)c2)[C@H]2C[C@@H]1C2(C)C` (some centres not stated) [US20250325711, Example 2], the Kd amounted to 22.9 nM.

Compound `CCCCCCC(C)(C)c1cc(OC)c([C@H]2C=C(CNC(=O)CCCCCCNC(=O)c3ccc(=O)n(S(=O)(=O)c4cccc(C(=O)NCC5CN(CCOCCNc6ccc([N+](=O)[O-])c7nonc67)N=N5)c4)c3)[C@H]3C[C@@H]2C3(C)C)c(OC)c1` (some centres not stated) [US20250325711, Example 3] came in with a dissociation constant Kd of 24.2 nM. `COc1cc(C(C)(C)CCCCCCN=[N+]=[N-])cc(OC)c1[C@H]1C=C(CNC(=O)CCCCCCNC(=O)c2ccc(=O)n(S(=O)(=O)c3cccc(C(=O)NCC4CN(CCOCCOCCOCCOCCNc5ccc([N+](=O)[O-])c6nonc56)N=N4)c3)c2)[C@H]2C[C@@H]1C2(C)C` (some centres not stated) [US20250325711, Example 4] displayed a Kd of 4.5 nM. The figure for `CCN(CC)c1ccc2c(c1)OC(=O)C(/C=C/c1ccc(S(=O)(=O)[O-])c[n+]1CCCCCC(=O)NCCOCCN1CC(CNC(=O)C3=CC(S(=O)(=O)N4CC(C(=O)NCCCCCCC(=O)NCC5=C[C@H](c6c(OC)cc(C(C)(C)CCCCCCN=[N+]=[N-])cc6OC)[C@@H]6C[C@H]5C6(C)C)C=CC4=O)CC=C3)N=N1)C2` (some centres not stated) [US20250325711, Example 5] is 59 nM. The figure for `COc1cc(C(C)(C)CCCCCCN=[N+]=[N-])cc(OC)c1[C@H]1C=C(CNC(=O)CCCCCCCCNC(=O)c2ccc(=O)n(S(=O)(=O)c3cccc(C(=O)NCC4CN(CCOCCNc5ccc([N+](=O)[O-])c6nonc56)N=N4)c3)c2)[C@H]2C[C@@H]1C2(C)C` (some centres not stated) [US20250325711, Example 7] is 8.9 nM.

For the compound `COc1cc(C(C)(C)CCCCCCN=[N+]=[N-])cc(OC)c1[C@H]1C=C(CNC(=O)CCCCCCNC(=O)c2ccc(S(=O)(=O)N(CC#N)C(=O)CCC3CN(CCOCCNc4ccc([N+](=O)[O-])c5nonc45)N=N3)cc2)[C@H]2C[C@@H]1C2(C)C` (some centres not stated) [US20250325711, Example 11], the Kd is 152 nM.
